Activity calls are given as the source filed them.
Tests used:
[1] = biological target: T1, Alkaline phosphatase, tissue-nonspecific isozyme (Homo sapiens, UniProt P05186); assay: potency against alkaline phosphatase TNAP – biochemical, luminescent, dose response, SAR follow-up (AID 1056)
T1 sequence (P05186 whole entry): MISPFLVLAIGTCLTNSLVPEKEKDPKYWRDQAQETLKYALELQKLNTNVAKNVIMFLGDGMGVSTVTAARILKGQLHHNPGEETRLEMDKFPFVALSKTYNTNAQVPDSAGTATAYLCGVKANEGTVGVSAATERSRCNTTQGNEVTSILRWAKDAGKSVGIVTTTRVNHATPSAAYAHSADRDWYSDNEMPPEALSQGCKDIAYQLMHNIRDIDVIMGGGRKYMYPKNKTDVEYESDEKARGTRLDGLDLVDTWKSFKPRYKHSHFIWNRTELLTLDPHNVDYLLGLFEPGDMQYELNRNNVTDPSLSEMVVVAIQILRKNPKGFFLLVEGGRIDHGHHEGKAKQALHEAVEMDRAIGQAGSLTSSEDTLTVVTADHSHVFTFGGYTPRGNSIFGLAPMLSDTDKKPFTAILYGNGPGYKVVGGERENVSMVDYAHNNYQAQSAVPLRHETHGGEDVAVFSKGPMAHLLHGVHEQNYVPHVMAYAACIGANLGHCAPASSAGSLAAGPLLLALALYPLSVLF

[2] = biological target: Alkaline phosphatase, placental type (Homo sapiens, UniProt P05187); assay: human placental alkaline phosphatase inhibition – biochemical, luminescence, confirmation (AID 1512); type: functional
[3] = biological target: T2, Dual specificity protein phosphatase 6 (Rattus norvegicus, UniProt Q64346)
T2 sequence (Q64346 whole entry): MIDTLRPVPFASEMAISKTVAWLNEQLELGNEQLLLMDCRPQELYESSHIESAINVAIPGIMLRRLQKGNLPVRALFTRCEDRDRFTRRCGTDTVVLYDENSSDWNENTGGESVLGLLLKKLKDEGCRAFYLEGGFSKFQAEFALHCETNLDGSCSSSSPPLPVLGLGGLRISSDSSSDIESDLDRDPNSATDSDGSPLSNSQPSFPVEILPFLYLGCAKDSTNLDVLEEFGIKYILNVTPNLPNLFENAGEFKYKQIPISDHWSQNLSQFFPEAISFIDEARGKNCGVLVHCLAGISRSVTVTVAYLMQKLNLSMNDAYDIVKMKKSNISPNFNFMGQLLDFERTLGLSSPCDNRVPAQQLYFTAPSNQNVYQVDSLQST

[4] = biological target: T3, Tyrosine-protein phosphatase non-receptor type 7 (Homo sapiens, UniProt P35236); type: functional
T3 sequence (P35236 whole entry): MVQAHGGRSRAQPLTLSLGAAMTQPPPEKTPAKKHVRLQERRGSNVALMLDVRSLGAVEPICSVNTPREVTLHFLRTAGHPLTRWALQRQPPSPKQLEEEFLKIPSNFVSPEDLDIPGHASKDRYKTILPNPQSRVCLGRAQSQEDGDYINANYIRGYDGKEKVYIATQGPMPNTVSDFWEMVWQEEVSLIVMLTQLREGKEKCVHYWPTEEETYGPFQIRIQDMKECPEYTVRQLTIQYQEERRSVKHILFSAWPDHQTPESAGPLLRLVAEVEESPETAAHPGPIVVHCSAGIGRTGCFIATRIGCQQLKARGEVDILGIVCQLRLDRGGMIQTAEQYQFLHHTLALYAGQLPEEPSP

[5] = biological target: T3, Tyrosine-protein phosphatase non-receptor type 7; assay: redox-active compounds inhibiting HePTP phosphatase – biochemical, fluorescence, mechanism study (AID 2068); type: functional
[6] = biological target: Glyceraldehyde-3-phosphate dehydrogenase (Homo sapiens, UniProt P04406)
[7] = biological target: T2, Dual specificity protein phosphatase 6; type: functional
[8] = biological target: T4, Dual specificity protein phosphatase 3 (Homo sapiens, UniProt P51452); assay: MOA VHR1 Fluorescent secondary assay for identification of redox-state modulating compounds. [Related pubchem assays (depositor defined):AID1654, AID1661, AID1878, AID1957]
[9] = biological target: T4, Dual specificity protein phosphatase 3; assay: SAR VHR1 Fluorescent Assay for In Vitro dose response studies. [Related pubchem assays (depositor defined):AID1654, AID1661, AID1878, AID1992, AID2004, AID2070, AID2085]; type: functional
[10] = biological target: G-protein coupled receptor 35 (Homo sapiens, UniProt Q9HC97); assay: SAR analysis of Antagonists of the GPR35 Receptor using an Image-Based Assay - Set 5. [Related pubchem assays (depositor defined):AID2058, AID2079]; type: functional
[11] = biological target: G-protein coupled receptor 55 (Homo sapiens, UniProt Q9Y2T6); assay: SAR Analysis of Selective Antagonists of GPR55 using an Image-Based Assay - Set 3. [Related pubchem assays (depositor defined):AID2058, AID2079]; type: functional
[12] = biological target: Voltage-dependent T-type calcium channel subunit alpha-1H (Homo sapiens, UniProt O95180); assay: human CACNA1H calcium influx blockade – cell-based, synthetic library set 1, calcium flux (AID 493022); type: functional
[13] = biological target: Sphingosine 1-phosphate receptor 4 (Homo sapiens, UniProt O95977); assay: potency of S1P4 activators – cell-based, fluorescence, synthesized compounds, late-stage follow-up (AID 463107); type: functional
[14] = biological target: Glucose-6-phosphate 1-dehydrogenase (Homo sapiens, UniProt P11413); assay: inhibition of Homo sapiens G6PD, dose series – biochemical, fluorescence, selectivity assay for P. falciparum G6PD inhibitor project, dose response (AID 504792); type: functional
Hexokinase HKDC1 = biological target: T5, Hexokinase HKDC1 (Homo sapiens, UniProt Q2TB90); assay: inhibition of HKDC1 glucose phosphorylation – biochemical, W721R variant, dose response (AID 504729); type: functional
T5 sequence (Q2TB90 whole entry): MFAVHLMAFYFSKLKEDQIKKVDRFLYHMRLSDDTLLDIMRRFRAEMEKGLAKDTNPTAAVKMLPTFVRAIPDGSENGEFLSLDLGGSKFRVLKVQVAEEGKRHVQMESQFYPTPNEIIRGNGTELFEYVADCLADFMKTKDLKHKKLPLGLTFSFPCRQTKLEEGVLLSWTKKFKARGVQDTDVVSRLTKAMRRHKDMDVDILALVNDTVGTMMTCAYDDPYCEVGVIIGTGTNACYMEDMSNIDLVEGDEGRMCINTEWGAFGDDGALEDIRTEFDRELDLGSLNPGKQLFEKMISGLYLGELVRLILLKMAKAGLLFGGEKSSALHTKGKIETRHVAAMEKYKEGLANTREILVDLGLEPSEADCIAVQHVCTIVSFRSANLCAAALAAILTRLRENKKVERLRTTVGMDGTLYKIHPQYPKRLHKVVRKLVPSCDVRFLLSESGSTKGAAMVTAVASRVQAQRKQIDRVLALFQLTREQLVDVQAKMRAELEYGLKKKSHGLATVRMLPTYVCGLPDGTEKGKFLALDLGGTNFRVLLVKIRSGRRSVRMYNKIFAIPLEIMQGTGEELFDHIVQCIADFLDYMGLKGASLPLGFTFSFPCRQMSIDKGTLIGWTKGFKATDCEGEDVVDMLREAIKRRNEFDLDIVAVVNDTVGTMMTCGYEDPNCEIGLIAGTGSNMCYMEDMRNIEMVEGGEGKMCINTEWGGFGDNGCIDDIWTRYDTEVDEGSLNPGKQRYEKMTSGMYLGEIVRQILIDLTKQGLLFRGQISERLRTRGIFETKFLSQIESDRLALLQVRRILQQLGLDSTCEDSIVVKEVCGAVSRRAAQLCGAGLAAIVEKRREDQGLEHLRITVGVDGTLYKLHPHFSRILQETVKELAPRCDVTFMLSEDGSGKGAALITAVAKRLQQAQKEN

Genome polyprotein = Genome polyprotein (dengue virus type 2, UniProt P29990); assay: flavivirus cap methylation enzyme inhibition – biochemical, confirmation dose response, primary screen (AID 588689); type: functional
Beta-galactosidase = Beta-galactosidase (Escherichia coli, UniProt Q8VNN2); assay: detection-enzyme interference by beta-gal modulators – biochemical, E. coli enzyme, set 3, artefact control for CCR6 antagonist project, dose response (AID 504712); type: functional
[15] = biological target: T6, Hepatocyte nuclear factor 4-alpha (Homo sapiens, UniProt P41235); type: functional, cell-based;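 also: biochemical luminescence-based dose-response counterscreen measuring inhibition of HNF4 dimerization, run alongside a screen for blockers of ABHD5–perilipin-5 interaction; split luciferase complementation of HNF4 fusion proteins in cell lysate measuring dimerization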
T6 sequence (P41235 whole entry): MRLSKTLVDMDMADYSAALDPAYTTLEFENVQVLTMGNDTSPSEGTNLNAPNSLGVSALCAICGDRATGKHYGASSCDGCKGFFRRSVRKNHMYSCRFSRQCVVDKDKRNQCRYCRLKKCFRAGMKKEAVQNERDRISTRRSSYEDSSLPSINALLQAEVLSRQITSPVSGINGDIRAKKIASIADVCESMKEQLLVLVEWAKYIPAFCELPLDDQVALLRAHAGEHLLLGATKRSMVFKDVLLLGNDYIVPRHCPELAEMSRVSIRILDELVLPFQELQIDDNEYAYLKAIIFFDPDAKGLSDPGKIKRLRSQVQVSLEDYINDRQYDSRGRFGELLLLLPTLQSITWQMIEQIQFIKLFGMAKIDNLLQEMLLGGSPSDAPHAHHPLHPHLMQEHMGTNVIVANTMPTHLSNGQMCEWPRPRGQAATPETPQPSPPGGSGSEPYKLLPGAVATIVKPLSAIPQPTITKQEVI

[16] = biological target: T7, Type-1 angiotensin II receptor (Homo sapiens, UniProt P30556); assay: agonist activity at AGTR1 – cell-based, uHTS hits, selectivity assay for APJ receptor agonist project, dose response (AID 488865); type: functional;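 also: beta-arrestin recruitment to AT1 measured by enzyme fragment complementation luminescence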
T7 sequence (P30556 whole entry): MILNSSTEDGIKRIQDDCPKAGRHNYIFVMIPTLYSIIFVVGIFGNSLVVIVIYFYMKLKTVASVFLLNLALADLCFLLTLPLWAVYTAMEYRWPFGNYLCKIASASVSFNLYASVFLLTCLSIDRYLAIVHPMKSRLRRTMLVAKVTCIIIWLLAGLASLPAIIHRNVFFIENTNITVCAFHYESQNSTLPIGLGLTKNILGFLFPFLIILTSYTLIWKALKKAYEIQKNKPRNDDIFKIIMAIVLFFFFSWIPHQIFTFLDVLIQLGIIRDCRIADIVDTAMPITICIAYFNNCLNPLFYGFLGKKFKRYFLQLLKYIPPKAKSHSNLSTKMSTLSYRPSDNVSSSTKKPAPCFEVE

HEK293 [17] = assay: cells; type: functional, cell-based; details: Homo sapiens
[18] = biological target: T8, Heat shock factor protein 1 (Mus musculus, UniProt P38532); assay: decrease of HSF1-responsive luciferase luminescence – cell-based, NIH3T3, dose retest, confirmation (AID 2382); type: functional;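 also: NIH3T3 fibroblasts with HSF1-driven luciferase reporter stressed by proteasome inhibitor MG132; luminescence from HSF1-driven luciferase expression after 8 hours of MG132 stress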
T8 sequence (P38532 whole entry): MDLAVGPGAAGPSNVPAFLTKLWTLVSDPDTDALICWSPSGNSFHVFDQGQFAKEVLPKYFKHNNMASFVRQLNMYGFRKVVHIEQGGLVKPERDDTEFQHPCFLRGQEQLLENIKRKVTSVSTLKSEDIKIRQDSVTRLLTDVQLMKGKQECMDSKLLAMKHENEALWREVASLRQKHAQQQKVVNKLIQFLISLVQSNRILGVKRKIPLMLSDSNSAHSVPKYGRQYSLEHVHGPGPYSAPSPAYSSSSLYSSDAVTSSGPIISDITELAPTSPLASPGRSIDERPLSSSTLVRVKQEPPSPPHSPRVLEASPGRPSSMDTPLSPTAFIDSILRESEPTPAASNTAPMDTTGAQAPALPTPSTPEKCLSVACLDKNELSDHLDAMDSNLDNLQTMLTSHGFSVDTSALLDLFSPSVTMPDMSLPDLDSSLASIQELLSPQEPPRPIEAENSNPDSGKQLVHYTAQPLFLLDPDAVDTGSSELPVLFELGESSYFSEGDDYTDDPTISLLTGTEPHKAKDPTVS

HEK293 [19] = assay: inhibition of NOD1-driven NF-kB reporter – cell-based, luminescence, uHTS, primary screen (AID 1578); type: functional; details: Homo sapiens
[20] = biological target: Nucleotide-binding oligomerization domain-containing protein 2 (Homo sapiens, UniProt Q9HC29); assay: inhibition of NOD2-driven NF-kB reporter – cell-based, luminescence, uHTS, HEK293 (AID 1566); type: functional
HEK293 [21] = assay: NOD2 signaling inhibitors in MDP-stimulated cells, cell-based, uHTS, luminescence (AID 2001); type: functional; details: Homo sapiens
HEK293 [22] = assay: cells; type: functional, cell-based; details: Homo sapiens; remark: listed apart in the source
HEK293 [23] = assay: cells; type: functional, cell-based; details: Homo sapiens; remark: listed apart in the source

T4 sequence (P51452 whole entry): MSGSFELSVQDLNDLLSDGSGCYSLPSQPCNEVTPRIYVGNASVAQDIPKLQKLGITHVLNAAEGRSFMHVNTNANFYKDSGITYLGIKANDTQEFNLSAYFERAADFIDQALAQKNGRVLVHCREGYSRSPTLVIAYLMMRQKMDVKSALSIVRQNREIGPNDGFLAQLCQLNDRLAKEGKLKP
Chain of Voltage-dependent T-type calcium channel subunit alpha-1H (O95180 whole entry): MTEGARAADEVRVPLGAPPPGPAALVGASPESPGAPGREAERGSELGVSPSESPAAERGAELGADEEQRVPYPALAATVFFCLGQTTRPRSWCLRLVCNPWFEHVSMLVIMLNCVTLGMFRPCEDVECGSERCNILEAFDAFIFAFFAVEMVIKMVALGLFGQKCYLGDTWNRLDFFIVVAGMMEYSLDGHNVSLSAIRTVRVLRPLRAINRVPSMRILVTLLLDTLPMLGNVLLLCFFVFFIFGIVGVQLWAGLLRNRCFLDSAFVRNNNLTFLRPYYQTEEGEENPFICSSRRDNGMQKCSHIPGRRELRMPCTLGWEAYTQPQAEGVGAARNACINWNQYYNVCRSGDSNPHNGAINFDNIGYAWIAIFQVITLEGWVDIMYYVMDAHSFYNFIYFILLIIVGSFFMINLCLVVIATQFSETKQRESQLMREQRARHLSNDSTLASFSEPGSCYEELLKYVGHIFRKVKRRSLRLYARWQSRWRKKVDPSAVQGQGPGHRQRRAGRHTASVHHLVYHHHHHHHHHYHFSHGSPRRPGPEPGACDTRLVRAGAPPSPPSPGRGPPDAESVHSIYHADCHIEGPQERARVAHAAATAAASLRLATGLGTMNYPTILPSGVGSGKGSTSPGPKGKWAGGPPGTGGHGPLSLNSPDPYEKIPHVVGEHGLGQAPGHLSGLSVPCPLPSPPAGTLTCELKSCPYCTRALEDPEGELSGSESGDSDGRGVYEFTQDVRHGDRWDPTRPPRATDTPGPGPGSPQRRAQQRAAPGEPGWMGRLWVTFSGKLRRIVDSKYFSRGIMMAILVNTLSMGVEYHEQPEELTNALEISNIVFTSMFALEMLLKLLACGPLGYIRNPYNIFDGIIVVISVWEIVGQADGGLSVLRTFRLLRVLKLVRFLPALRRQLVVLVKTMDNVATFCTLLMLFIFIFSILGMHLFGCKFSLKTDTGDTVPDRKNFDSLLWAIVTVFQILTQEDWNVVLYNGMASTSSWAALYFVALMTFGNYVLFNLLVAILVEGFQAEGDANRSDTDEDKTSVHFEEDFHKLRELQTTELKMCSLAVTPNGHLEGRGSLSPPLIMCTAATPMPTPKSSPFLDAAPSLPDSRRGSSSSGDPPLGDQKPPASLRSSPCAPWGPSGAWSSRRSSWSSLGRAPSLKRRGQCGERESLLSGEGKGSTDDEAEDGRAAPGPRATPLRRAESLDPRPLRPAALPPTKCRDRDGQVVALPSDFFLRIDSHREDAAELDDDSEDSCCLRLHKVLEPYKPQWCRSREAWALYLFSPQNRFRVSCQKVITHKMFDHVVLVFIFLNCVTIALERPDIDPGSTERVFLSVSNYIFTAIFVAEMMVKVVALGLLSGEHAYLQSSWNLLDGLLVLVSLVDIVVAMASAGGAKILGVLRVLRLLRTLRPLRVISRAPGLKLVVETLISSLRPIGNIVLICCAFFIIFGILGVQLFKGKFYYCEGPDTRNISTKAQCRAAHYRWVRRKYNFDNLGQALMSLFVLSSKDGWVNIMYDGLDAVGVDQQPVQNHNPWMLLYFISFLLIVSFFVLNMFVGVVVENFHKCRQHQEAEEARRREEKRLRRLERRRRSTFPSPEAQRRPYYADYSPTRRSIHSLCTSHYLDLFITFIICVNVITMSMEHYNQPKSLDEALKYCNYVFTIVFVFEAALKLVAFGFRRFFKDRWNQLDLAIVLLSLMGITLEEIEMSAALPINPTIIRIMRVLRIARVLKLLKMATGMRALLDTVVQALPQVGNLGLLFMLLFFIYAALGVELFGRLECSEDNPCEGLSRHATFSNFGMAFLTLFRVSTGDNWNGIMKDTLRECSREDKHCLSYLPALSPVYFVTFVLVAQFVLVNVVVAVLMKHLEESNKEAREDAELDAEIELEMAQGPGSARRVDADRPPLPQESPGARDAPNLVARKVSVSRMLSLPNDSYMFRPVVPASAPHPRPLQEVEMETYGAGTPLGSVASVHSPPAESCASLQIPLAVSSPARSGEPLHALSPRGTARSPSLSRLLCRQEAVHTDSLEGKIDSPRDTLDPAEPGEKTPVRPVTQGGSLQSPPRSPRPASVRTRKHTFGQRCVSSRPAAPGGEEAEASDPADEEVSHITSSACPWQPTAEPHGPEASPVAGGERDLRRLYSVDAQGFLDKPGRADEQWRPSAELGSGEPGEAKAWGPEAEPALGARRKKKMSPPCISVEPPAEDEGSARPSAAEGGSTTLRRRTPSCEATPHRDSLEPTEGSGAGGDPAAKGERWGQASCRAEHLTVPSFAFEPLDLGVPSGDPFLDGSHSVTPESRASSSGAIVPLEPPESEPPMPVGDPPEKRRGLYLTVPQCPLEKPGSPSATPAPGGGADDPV
Chain of Nucleotide-binding oligomerization domain-containing protein 2 (Q9HC29 whole entry, the tested form may be a part): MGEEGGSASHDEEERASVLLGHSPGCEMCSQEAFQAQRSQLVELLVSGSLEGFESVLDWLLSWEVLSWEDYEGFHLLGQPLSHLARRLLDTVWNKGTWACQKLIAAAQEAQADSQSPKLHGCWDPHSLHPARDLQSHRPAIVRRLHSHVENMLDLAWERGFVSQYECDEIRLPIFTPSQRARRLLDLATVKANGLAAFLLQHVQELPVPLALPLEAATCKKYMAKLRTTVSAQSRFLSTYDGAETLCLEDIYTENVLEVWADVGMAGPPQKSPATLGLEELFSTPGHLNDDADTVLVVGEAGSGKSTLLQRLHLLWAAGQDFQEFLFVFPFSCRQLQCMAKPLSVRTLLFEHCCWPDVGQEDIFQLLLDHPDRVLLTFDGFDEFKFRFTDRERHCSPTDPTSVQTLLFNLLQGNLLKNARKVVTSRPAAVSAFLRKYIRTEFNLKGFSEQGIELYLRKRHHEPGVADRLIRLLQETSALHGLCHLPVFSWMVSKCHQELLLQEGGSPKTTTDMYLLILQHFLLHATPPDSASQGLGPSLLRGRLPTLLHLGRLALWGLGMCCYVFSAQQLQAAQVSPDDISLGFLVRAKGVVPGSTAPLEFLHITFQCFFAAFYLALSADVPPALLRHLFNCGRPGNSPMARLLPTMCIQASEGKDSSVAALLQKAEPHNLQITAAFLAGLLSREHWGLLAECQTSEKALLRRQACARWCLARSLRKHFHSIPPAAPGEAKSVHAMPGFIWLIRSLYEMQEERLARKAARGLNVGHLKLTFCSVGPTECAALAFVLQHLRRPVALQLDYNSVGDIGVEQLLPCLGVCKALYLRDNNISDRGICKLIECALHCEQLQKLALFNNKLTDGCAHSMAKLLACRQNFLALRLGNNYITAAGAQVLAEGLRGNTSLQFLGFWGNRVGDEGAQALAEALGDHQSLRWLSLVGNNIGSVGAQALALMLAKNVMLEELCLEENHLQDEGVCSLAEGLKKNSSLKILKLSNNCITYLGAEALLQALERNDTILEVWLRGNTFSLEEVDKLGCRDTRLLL
Chain of Sphingosine 1-phosphate receptor 4 (O95977 whole entry): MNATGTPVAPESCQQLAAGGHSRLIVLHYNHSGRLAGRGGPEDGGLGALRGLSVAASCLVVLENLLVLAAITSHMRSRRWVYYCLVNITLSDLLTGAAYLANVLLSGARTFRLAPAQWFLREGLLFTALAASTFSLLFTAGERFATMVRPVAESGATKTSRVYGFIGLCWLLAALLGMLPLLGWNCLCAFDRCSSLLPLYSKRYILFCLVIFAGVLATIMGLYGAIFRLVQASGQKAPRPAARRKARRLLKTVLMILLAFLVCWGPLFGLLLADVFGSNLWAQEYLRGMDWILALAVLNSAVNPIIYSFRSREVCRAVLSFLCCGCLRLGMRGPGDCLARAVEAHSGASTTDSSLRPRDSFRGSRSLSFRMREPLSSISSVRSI
Chain of G-protein coupled receptor 35 (Q9HC97 whole entry): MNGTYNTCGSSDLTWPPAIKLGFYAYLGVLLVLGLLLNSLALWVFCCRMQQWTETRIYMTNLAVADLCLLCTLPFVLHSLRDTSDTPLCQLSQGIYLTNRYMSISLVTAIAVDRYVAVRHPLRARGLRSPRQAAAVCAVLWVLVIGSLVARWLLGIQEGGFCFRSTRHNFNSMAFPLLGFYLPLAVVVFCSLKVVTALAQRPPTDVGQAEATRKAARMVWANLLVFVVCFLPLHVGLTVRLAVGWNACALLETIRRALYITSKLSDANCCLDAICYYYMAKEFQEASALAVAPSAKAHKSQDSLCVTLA
Chain of Glyceraldehyde-3-phosphate dehydrogenase (P04406 whole entry): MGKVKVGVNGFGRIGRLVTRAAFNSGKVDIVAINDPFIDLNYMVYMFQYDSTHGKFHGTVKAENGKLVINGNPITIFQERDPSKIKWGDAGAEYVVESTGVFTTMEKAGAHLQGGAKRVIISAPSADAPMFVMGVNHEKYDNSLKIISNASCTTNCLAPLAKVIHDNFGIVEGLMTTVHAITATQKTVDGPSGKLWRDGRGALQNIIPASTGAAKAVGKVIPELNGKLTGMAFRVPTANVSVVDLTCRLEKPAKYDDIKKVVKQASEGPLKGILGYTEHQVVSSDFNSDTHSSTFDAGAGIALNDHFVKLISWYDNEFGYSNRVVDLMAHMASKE
Chain of G-protein coupled receptor 55 (Q9Y2T6 whole entry): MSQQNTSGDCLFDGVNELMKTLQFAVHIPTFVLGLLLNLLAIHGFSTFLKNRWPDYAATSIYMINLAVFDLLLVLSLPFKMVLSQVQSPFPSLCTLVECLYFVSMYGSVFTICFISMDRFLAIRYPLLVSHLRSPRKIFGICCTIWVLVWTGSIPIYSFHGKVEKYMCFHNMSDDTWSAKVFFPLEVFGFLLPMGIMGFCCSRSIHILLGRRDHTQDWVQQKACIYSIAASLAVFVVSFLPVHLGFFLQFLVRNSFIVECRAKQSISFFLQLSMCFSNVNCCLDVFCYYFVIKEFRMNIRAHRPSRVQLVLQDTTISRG

O=C(NC1(C(F)(F)F)Oc2ccccc2O1)Sc1ccccc1
IC50 [1]: > 100 µM (inactive) | IC50 [2]: 92.3 µM (active)

O=c1/c(=C/c2cccc(Br)c2)sc2nc3cc(Br)cnc3n12
IC50 [3]: > 100 µM (inactive) | IC50 [4]: > 100 µM (not active) | IC50 [5]: 98.3 µM (active) | IC50 [6]: > 100 µM (not active) | IC50 [7]: > 100 µM (inactive) | IC50 [8]: > 100 µM (inactive) | IC50 [9]: > 100 µM (inactive)

COC(=O)c1cnn(-c2ccc(Cl)cc2)c1/C=N/NC(N)=S
IC50 [10]: 4.6 µM (active) | IC50 [11]: > 32 µM (inactive)

Cc1ccc(-c2nnc(NC(=O)COc3ccccc3Cl)o2)cc1C
EC50 [12]: 1.3 µM (active)

Cc1ccc(OCCCOc2ccc(Cl)cc2Cl)c([N+](=O)[O-])n1
EC50 [13]: > 50 µM (inactive)

CN(C)c1ccc(Cc2cc3c(O)ccc(O)c3cc(Cc3ccc(N(C)C)cc3)c2=O)cc1
IC50 [14]: 56.7 µM (inactive) | IC50 (Hexokinase HKDC1): 10.9 µM (active) | IC50 (Genome polyprotein): 44.1 µM (active) | IC50 (Beta-galactosidase): > 66.6 µM (inactive) | IC50 [15]: 4.6 µM (active)

CSc1cccc(NC(=S)NC(=O)CCc2ccccc2)c1
EC50 [16]: > 100 µM (inactive)

Cc1ccc(C(=O)Nc2sc(C)c(-c3ccccc3)c2C(N)=O)cc1[N+](=O)[O-]
IC50 (HEK293 [17]): > 20 µM (inactive) | EC50 [18]: < 0.16 µM (active) | EC50 (HEK293 [19]): > 20 µM (inactive) | EC50 [20]: < 0.31 µM (inactive) | IC50 (HEK293 [21]): > 20 µM (inactive) | IC50 (HEK293 [22]): < 0.312 µM (active) | IC50 (HEK293 [23]): > 20 µM (inactive)

— ChEMBL document CHEMBL1201862, “PubChem BioAssay data set” (2004)
